# Assay results taken from publication PMC11555526, “Development of 2-Aminoadenine-Based Proteolysis-Targeting Chimeras (PROTACs) as Novel Potent Degraders of Monopolar Spindle 1 and Aurora Kinases” (ACS Pharmacology & Translational Science, 2024).
# Assays:
# AURKA = biological target: T1, AURKA (Homo sapiens, UniProt O14965); experiment: Immunoblot of AURKA in HiBiT-TTK cells; format: cell-based; conditions: 6 h
# T1 construct: endogenous in cells; host or cells: MV4-11 HiBiT-TTK cells (AURKA not transduced)
# T1 sequence (O14965 1-403): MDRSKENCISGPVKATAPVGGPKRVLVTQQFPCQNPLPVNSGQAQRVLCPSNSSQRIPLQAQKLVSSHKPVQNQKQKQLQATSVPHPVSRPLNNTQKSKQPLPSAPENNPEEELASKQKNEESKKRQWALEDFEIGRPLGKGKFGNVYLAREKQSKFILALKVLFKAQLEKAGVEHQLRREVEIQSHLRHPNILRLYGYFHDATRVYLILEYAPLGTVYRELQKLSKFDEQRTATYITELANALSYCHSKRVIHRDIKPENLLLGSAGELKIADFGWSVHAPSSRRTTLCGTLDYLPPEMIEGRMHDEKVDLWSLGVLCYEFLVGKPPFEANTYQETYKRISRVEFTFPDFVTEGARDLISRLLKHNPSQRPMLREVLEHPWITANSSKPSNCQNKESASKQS
# Method: The cells were treated with compounds or vehicle for indicated time points and lysed in RIPA lysis buffer (50 mM HEPES pH 7.9, 140 mM NaCl, 1 mM EDTA, 1% Triton X-100, 0.1% SDS, 0.1% sodium deoxycholate) containing protease and phosphatase inhibitors (Sigma) for 20 min at 4 °C. Cell lysates were cleared by centrifugation, and protein concentration was determined with bicinchoninic acid assay. Equal amounts of protein per sample were separated by Bis-Tris-PAGE and transferred to PVDF membranes (Millipore). The membranes were blocked with 5% (w/v) nonfat dry milk in TBS-T [20 mM Tris–HCl, pH 7.5, 150 mM NaCl, 0.1% (v/v) Tween-20] for 1 h at room temperature and incubated with primary antibody at 4 °C overnight. Visualization was carried out using horseradish peroxidase (HRP)-labeled secondary antibodies and detected using a chemiluminescent HRP substrate (Millipore) in LAS3000 or LAS4000 mini (Fujifilm). Vinculin, GAPDH, or B-actin were used as a loading control. […] The signal was quantified using ImageJ or Image Studio Lite against the corresponding loading controls. […]
# Figure S2: Cellular degradation studies of SF1-based compounds. […] Indicated MV4-11 HiBiT cells were treated with different concentrations of 15 (B), and 28 (C) for 6 h, lysed, complemented with the large luciferase fragment (largeBiT), and luciferase 27 (A), activity was measured. […]
# TTK = biological target: T2, TTK (Homo sapiens, UniProt P33981); experiment: Immunoblot of TTK in HiBiT-TTK cells; format: cell-based; set-up: endogenous in cells; host or cells: naive MV4-11; conditions: 6 h, 10 µM
# T2 sequence (P33981 1-857): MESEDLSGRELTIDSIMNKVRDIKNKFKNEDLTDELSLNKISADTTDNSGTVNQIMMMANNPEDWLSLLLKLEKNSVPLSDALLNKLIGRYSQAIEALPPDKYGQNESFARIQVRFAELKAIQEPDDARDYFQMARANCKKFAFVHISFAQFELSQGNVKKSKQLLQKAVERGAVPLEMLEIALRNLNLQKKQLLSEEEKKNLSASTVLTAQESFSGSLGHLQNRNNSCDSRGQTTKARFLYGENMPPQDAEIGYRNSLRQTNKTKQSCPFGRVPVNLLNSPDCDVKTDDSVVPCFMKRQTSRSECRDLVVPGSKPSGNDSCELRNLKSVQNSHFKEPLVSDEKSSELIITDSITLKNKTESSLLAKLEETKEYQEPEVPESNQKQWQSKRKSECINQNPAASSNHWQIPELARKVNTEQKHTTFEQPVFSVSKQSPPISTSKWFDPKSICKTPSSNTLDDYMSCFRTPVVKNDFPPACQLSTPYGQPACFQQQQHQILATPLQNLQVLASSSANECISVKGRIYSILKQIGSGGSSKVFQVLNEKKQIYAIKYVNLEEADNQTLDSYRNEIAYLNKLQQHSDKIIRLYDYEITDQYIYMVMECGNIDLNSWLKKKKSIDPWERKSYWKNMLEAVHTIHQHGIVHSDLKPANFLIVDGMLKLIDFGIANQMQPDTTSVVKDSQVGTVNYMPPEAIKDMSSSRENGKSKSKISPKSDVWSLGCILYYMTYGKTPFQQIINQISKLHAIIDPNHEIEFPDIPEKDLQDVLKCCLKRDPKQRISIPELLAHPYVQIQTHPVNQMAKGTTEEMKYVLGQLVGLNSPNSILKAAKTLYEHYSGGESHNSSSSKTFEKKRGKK
# Method: The cells were treated with compounds or vehicle for indicated time points and lysed in RIPA lysis buffer (50 mM HEPES pH 7.9, 140 mM NaCl, 1 mM EDTA, 1% Triton X-100, 0.1% SDS, 0.1% sodium deoxycholate) containing protease and phosphatase inhibitors (Sigma) for 20 min at 4 °C. Cell lysates were cleared by centrifugation, and protein concentration was determined with bicinchoninic acid assay. Equal amounts of protein per sample were separated by Bis-Tris-PAGE and transferred to PVDF membranes (Millipore). The membranes were blocked with 5% (w/v) nonfat dry milk in TBS-T [20 mM Tris–HCl, pH 7.5, 150 mM NaCl, 0.1% (v/v) Tween-20] for 1 h at room temperature and incubated with primary antibody at 4 °C overnight. Visualization was carried out using horseradish peroxidase (HRP)-labeled secondary antibodies and detected using a chemiluminescent HRP substrate (Millipore) in LAS3000 or LAS4000 mini (Fujifilm). Vinculin, GAPDH, or B-actin were used as a loading control. The loading control was probed along with the target antibody by cutting the membrane. For targets with similar molecular weights, the samples were run in duplicate and probed with their respective loading controls, although only one control was shown in the figure for all targets. The signal was quantified using ImageJ or Image Studio Lite against the corresponding loading controls. […]
smiles,measurement,setting,value
Cc1ncsc1-c1ccc(CNC(=O)[C@@H]2C[C@@H](O)CN2C(=O)[C@@H](NC(=O)COCCOCC(=O)N2CCN(c3ccc(Nc4nc(Nc5ccccc5S(=O)(=O)C(C)C)c5nc[nH]c5n4)cc3)CC2)C(C)(C)C)cc1 [Compound 49],"relative AURKA level (immunoblot quantification, vehicle = 1.00)",AURKA; 0.16 µM,1.00
same,"relative AURKA level (immunoblot quantification, vehicle = 1.00)",AURKA; 10 µM,0.87
same,"relative TTK level (immunoblot quantification, vehicle = 1.00)",TTK,0.48
